{"source": "ChEMBL document CHEMBL3885861", "about": "“Open TG-GATES”", "organism": "Rattus norvegicus", "experiment": "Open TG-GATES - Regimen: Single", "assay_type": "toxicity, organism-based, Sprague-Dawley", "parameters": "regimen Single, gender Male, age 6 weeks", "conditions": "in vivo, po, 8 mg/kg, route gavage, dose level Low; for APTT / Bas / Eos / Fbg / Hb / Ht / Lym / MCH / MCHC / MCV / Mono / Neu / PT / Plat / RBC / Ret / WBC: tissue Blood; for KIDNEY_L / KIDNEY_R / KIDNEY_TOTAL: tissue Kidney; for LIVER: tissue Liver; for A/G / ALP / ALT / AST / BUN / CRE / Ca / Cl / DBIL / GLC / IP / K / LDH / Na / PL / RALB / TBIL / TC / TG / TP / gamma-GTP: tissue Plasma", "data": [{"smiles": "NC1=NC(=O)C(c2ccccc2)O1", "note": "(stereo unspecified) [PEMOLINE]", "values": [{"measurement": "TERMINAL_BW", "setting": "3 h", "result": 210.1, "unit": "g"}, {"measurement": "APTT", "setting": "3 h", "result": 15.6, "unit": "s"}, {"measurement": "Bas", "setting": "3 h", "result": 0, "unit": "%"}, {"measurement": "Eos", "setting": "3 h", "result": 0.6, "unit": "%"}, {"measurement": "Fbg", "setting": "3 h", "result": 289.6, "unit": "mg/dL"}, {"measurement": "Hb", "setting": "3 h", "result": 13.2, "unit": "g/dL"}, {"measurement": "Ht", "setting": "3 h", "result": 38.9, "unit": "%"}, {"measurement": "Lym", "setting": "3 h", "result": 79.4, "unit": "%"}, {"measurement": "MCH", "setting": "3 h", "result": 21.9, "unit": "pg"}, {"measurement": "MCHC", "setting": "3 h", "result": 34.1, "unit": "%"}, {"measurement": "MCV", "setting": "3 h", "result": 64.2, "unit": "fL"}, {"measurement": "Mono", "setting": "3 h", "result": 3.2, "unit": "%"}, {"measurement": "Neu", "setting": "3 h", "result": 16.2, "unit": "%"}, {"measurement": "PT", "setting": "3 h", "result": 13.2, "unit": "s"}, {"measurement": "Plat", "setting": "3 h", "result": 112.1, "unit": "x10_4/uL"}, {"measurement": "RBC", "setting": "3 h", "result": 605.6, "unit": "x10_4/ul"}, {"measurement": "Ret", "setting": "3 h", "result": 9.3, "unit": "%"}, {"measurement": "WBC", "setting": "3 h", "result": 89, "unit": "x10_2/uL"}, {"measurement": "KIDNEY_L", "setting": "3 h", "result": 0.9, "unit": "g"}, {"measurement": "KIDNEY_R", "setting": "3 h", "result": 0.9, "unit": "g"}, {"measurement": "KIDNEY_TOTAL", "setting": "3 h", "result": 1.8, "unit": "g"}, {"measurement": "LIVER", "setting": "3 h", "result": 9, "unit": "g"}, {"measurement": "A/G", "setting": "3 h", "result": 1}, {"measurement": "ALP", "setting": "3 h", "result": 1585.2, "unit": "IU/L"}, {"measurement": "ALT", "setting": "3 h", "result": 44, "unit": "IU/L"}, {"measurement": "AST", "setting": "3 h", "result": 83, "unit": "IU/L"}, {"measurement": "BUN", "setting": "3 h", "result": 8.2, "unit": "mg/dL"}, {"measurement": "CRE", "setting": "3 h", "result": 0.2, "unit": "mg/dL"}, {"measurement": "Ca", "setting": "3 h", "result": 10.7, "unit": "mg/dL"}, {"measurement": "Cl", "setting": "3 h", "result": 106.2, "unit": "meq/L"}, {"measurement": "DBIL", "setting": "3 h", "result": 0.014, "unit": "mg/dL"}, {"measurement": "GLC", "setting": "3 h", "result": 174.2, "unit": "mg/dL"}, {"measurement": "IP", "setting": "3 h", "result": 7.9, "unit": "mg/dL"}, {"measurement": "K", "setting": "3 h", "result": 4.1, "unit": "meq/L"}, {"measurement": "LDH", "setting": "3 h", "result": 68.8, "unit": "IU/L"}, {"measurement": "Na", "setting": "3 h", "result": 139.6, "unit": "meq/L"}, {"measurement": "PL", "setting": "3 h", "result": 126.6, "unit": "mg/dL"}, {"measurement": "RALB", "setting": "3 h", "result": 2.7, "unit": "g/dL"}, {"measurement": "TBIL", "setting": "3 h", "result": 0.042, "unit": "mg/dL"}, {"measurement": "TC", "setting": "3 h", "result": 77, "unit": "mg/dL"}, {"measurement": "TG", "setting": "3 h", "result": 45.8, "unit": "mg/dL"}, {"measurement": "TP", "setting": "3 h", "result": 5.3, "unit": "g/dL"}, {"measurement": "gamma-GTP", "setting": "3 h", "result": 1.4, "unit": "IU/L"}, {"measurement": "TERMINAL_BW", "setting": "6 h", "result": 211.2, "unit": "g"}, {"measurement": "APTT", "setting": "6 h", "result": 15.8, "unit": "s"}, {"measurement": "Bas", "setting": "6 h", "result": 0, "unit": "%"}, {"measurement": "Eos", "setting": "6 h", "result": 1, "unit": "%"}, {"measurement": "Fbg", "setting": "6 h", "result": 309, "unit": "mg/dL"}, {"measurement": "Hb", "setting": "6 h", "result": 13.5, "unit": "g/dL"}, {"measurement": "Ht", "setting": "6 h", "result": 39.8, "unit": "%"}, {"measurement": "Lym", "setting": "6 h", "result": 75.6, "unit": "%"}, {"measurement": "MCH", "setting": "6 h", "result": 21.9, "unit": "pg"}, {"measurement": "MCHC", "setting": "6 h", "result": 33.9, "unit": "%"}, {"measurement": "MCV", "setting": "6 h", "result": 64.6, "unit": "fL"}, {"measurement": "Mono", "setting": "6 h", "result": 3.4, "unit": "%"}, {"measurement": "Neu", "setting": "6 h", "result": 19.6, "unit": "%"}, {"measurement": "PT", "setting": "6 h", "result": 13.1, "unit": "s"}, {"measurement": "Plat", "setting": "6 h", "result": 112.7, "unit": "x10_4/uL"}, {"measurement": "RBC", "setting": "6 h", "result": 616.4, "unit": "x10_4/ul"}, {"measurement": "Ret", "setting": "6 h", "result": 8.9, "unit": "%"}, {"measurement": "WBC", "setting": "6 h", "result": 81.1, "unit": "x10_2/uL"}, {"measurement": "KIDNEY_L", "setting": "6 h", "result": 0.9, "unit": "g"}, {"measurement": "KIDNEY_R", "setting": "6 h", "result": 0.9, "unit": "g"}, {"measurement": "KIDNEY_TOTAL", "setting": "6 h", "result": 1.8, "unit": "g"}, {"measurement": "LIVER", "setting": "6 h", "result": 8.7, "unit": "g"}, {"measurement": "A/G", "setting": "6 h", "result": 1}, {"measurement": "ALP", "setting": "6 h", "result": 1539, "unit": "IU/L"}, {"measurement": "ALT", "setting": "6 h", "result": 44, "unit": "IU/L"}, {"measurement": "AST", "setting": "6 h", "result": 80, "unit": "IU/L"}, {"measurement": "BUN", "setting": "6 h", "result": 8, "unit": "mg/dL"}, {"measurement": "CRE", "setting": "6 h", "result": 0.2, "unit": "mg/dL"}, {"measurement": "Ca", "setting": "6 h", "result": 10.7, "unit": "mg/dL"}, {"measurement": "Cl", "setting": "6 h", "result": 104.8, "unit": "meq/L"}, {"measurement": "DBIL", "setting": "6 h", "result": 0.014, "unit": "mg/dL"}, {"measurement": "GLC", "setting": "6 h", "result": 186.2, "unit": "mg/dL"}, {"measurement": "IP", "setting": "6 h", "result": 9.9, "unit": "mg/dL"}, {"measurement": "K", "setting": "6 h", "result": 3.9, "unit": "meq/L"}, {"measurement": "LDH", "setting": "6 h", "result": 56.8, "unit": "IU/L"}, {"measurement": "Na", "setting": "6 h", "result": 140.6, "unit": "meq/L"}, {"measurement": "PL", "setting": "6 h", "result": 127, "unit": "mg/dL"}, {"measurement": "RALB", "setting": "6 h", "result": 2.8, "unit": "g/dL"}, {"measurement": "TBIL", "setting": "6 h", "result": 0.042, "unit": "mg/dL"}, {"measurement": "TC", "setting": "6 h", "result": 78.4, "unit": "mg/dL"}, {"measurement": "TG", "setting": "6 h", "result": 37.4, "unit": "mg/dL"}, {"measurement": "TP", "setting": "6 h", "result": 5.5, "unit": "g/dL"}, {"measurement": "gamma-GTP", "setting": "6 h", "result": 1.4, "unit": "IU/L"}]}]}
